The results in this text go back to article PMC3086245 (Emerging Infectious Diseases, 2010).

Assay [1] deals with influenza viruses A (H1N1) isolates, H275Y on N1 NA protein. More on the design: species or system influenza virus A (H1N1).
Assay [2] deals with NA of oseltamivir-resistant influenza viruses A (H1N1) (ORVs) with H275Y (Influenza A virus (H1N1), UniProt E3JK96). The assay is classed as biochemical.

With `CCOC(=O)C1=C[C@@H](OC(CC)CC)[C@H](NC(C)=O)[C@@H](N)C1` [Oseltamivir, oseltamivir], the “susceptibility to oseltamivir (in words)” value in assay [1] is recorded as “resistant”.
As for `CC(=O)N[C@H]1[C@H]([C@H](O)[C@H](O)CO)OC(C(=O)O)=C[C@@H]1N=C(N)N` [Zanamivir, zanamivir], the “sensitivity of ORVs to the drug (in words)” value in assay [2] is on record as “sensitive”.
